PubChem BioAssay AID1963972 (Molecular Pharmacology Branch, DTP, NCI, 2024)
One block for each molecule: values may come before it.

Tested on: 945468-187-T-J2-PDC spheroids viability
Test: Anticancer human tumor 945468-187-T-J2-PDC patient-derived rectal carcinoma cell line growth inhibition [PI3K]
Conditions: spheroids with HUVEC and MSC; for IC50: curve of first compound; for viability, T/C: stronger effect = lower value
Excerpt: Combinatorial screen of targeted agents with the PI3K inhibitors inavolisib, alpelisib, duvelisib, and copanlisib in multi-cell type tumor spheroids
A high-throughput screen of multi-cell type tumor spheroids was designed to identify active combinations of targeted small molecules and PI3K pathway inhibitors. Complex spheroids include a stromal component modeled by human endothelial cells (HUVEC) and fibroblasts modeled by human mesenchymal stem cells (MSCs). The concentration ranges selected for each drug and investigational agent were based upon clinically achievable concentrations if the clinical Cmax of the agent was known.
Compounds. The drugs and investigational agents: inavolisib (NSC800729), alpelisib (NSC765974), duvelisib (NSC772469), copanlisib (NSC816437), ipatasertib (NSC767898), afuresertib (NSC778305), talazoparib (NSC767125), sapanisertib (NSC764658), selumetinib (NSC741078), tovorafenib (DAY101, NSC766906), vemurafenib (NSC761431), ravoxertinib (NSC781343), sotorasib (NSC818433), MRTX1133 (NSC 836407), abemaciclib (NSC 768073), palbociclib (NSC758247), venetoclax (NSC 766270), SY5609 (NSC837396), enzalutamide (NSC755605), and darolutamide (NSC825331), were obtained from the National Cancer Institute (NCI) Developmental Therapeutics Program Chemical Repository. The FDA-approved anticancer drug set is available from the NCI Developmental Therapeutics Program. […] The stock solutions were prepared in dimethyl sulfoxide (DMSO, Sigma-Aldrich, St. Louis, MO, cat. D2650) at 800-fold the tested concentration and stored at -70 degrees C prior to their use. All drugs and investigational agents were tested over a range starting from a high concentration at or near the clinical Cmax and decreasing in half-log increments. If the clinical Cmax for an agent had not been determined, the highest concentration tested was 10 microM.
Cell Culture. All cells were maintained in an incubator at 37 degrees C and 5% CO2 with 95% humidity. The PDC lines were cultured according to standard operating procedures established by the NCI PDMR (https://pdmr.cancer.gov/sops/default.htm). All PDCs were thawed and cultured in Matrigel-coated flasks prepared with a working solution of 1X Ham's F-12 nutrient mix, without supplementation (Invitrogen, Waltham, MA, cat. 11765054), 100 U/mL penicillin-streptomycin (Invitrogen, cat. 15140122), and 2.5% Matrigel (Corning Inc., Corning, NY, cat. 354248) for the first three passages. The 354836-022-R-J1-PDC, 475296-252-R-J1-PDC, and 997726-040-R-J2-PDC lines were cultured in 6A media, which includes advanced DMEM/F-12 (Thermo Fisher Scientific, cat. 12634028), 10 mM HEPES (Thermo Fisher Scientific, cat. 15630080), 1X GlutaMAX supplement (Thermo Fisher Scientific, cat. 35050061), 0.1 mg/mL primocin (InvivoGen, San Diego, CA, cat. ant-pm-2), 10% defined fetal bovine serum, heat inactivated (HyClone Laboratories Inc., Logan, UT, cat. SH30070.03HI), 50% L-WRN conditioned media (ATCC, cat. CRL-3276), 1.25 mM N-Acetyl-L-cysteine (Sigma-Aldrich, cat. A9165), 10 mM nicotinamide (Sigma-Aldrich, cat. N0636), 1X B-27 supplement (Thermo Fisher Scientific, cat. 17504044), 1X N-2 supplement (Thermo Fisher Scientific, cat. 17502048), and 10 microM Y-27632 dihydrochloride (Tocris Bioscience, Bristol, United Kingdom, cat. 1254). The 624824-186-R-J2-PDC line was cultured in 6C/Colon 1B media, which includes all 6A media components plus 50 ng/mL human EGF recombinant protein (Thermo Fisher Scientific, cat. PHG0311). […]

[1] = second compound 0.00316 µM, first compound 0.0316 µM
[2] = second compound 0.00316 µM, first compound 0.1 µM
[3] = second compound 0.01 µM, first compound 0.0316 µM
[4] = second compound 0.01 µM, first compound 0.1 µM
[5] = second compound 0.0316 µM, first compound 0.0316 µM
[6] = second compound 0.0316 µM, first compound 0.1 µM
[7] = second compound 0.1 µM, first compound 0.0316 µM
[8] = second compound 0.1 µM, first compound 0.1 µM
[9] = second compound 0.316 µM, first compound 0.0316 µM
[10] = second compound 0.316 µM, first compound 0.1 µM
[11] = second compound 1 µM, first compound 0.0316 µM
[12] = second compound 1 µM, first compound 0.1 µM
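Also: spheroids exposed to compounds for seven days before reading.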

IC50 (second compound 0.00316 µM): > 0.1 µM | IC50 (second compound 0.01 µM): > 0.1 µM | IC50 (second compound 0.0316 µM): > 0.1 µM | IC50 (second compound 0.1 µM): > 0.1 µM | IC50 (second compound 0.316 µM): > 0.1 µM | IC50 (second compound 1 µM): > 0.1 µM
Structure (SMILES): CC(=O)c1c(C)c2cnc(Nc3ccc(N4CCNCC4)cn3)nc2n(C2CCCC2)c1=O + CC(Nc1ccc2c(c1)OCCn1cc(N3C(=O)OCC3C(F)F)nc1-2)C(N)=O
viability, T/C (second compound 0.00316 µM, first compound 0.000316 µM): 91.5% | viability, T/C (second compound 0.00316 µM, first compound 0.001 µM): 98.4% | viability, T/C (second compound 0.00316 µM, first compound 0.00316 µM): 73.9% | viability, T/C (second compound 0.00316 µM, first compound 0.01 µM): 114% | viability, T/C [1]: 129% | viability, T/C [2]: 128% | viability, T/C (second compound 0.01 µM, first compound 0.000316 µM): 73.9% | viability, T/C (second compound 0.01 µM, first compound 0.001 µM): 109% | viability, T/C (second compound 0.01 µM, first compound 0.00316 µM): 127% | viability, T/C (second compound 0.01 µM, first compound 0.01 µM): 83.5% | viability, T/C [3]: 92.8% | viability, T/C [4]: 114% | viability, T/C (second compound 0.0316 µM, first compound 0.000316 µM): 91% | viability, T/C (second compound 0.0316 µM, first compound 0.001 µM): 101% | viability, T/C (second compound 0.0316 µM, first compound 0.00316 µM): 101% | viability, T/C (second compound 0.0316 µM, first compound 0.01 µM): 87.3% | viability, T/C [5]: 86.2% | viability, T/C [6]: 105% | viability, T/C (second compound 0.1 µM, first compound 0.000316 µM): 92.5% | viability, T/C (second compound 0.1 µM, first compound 0.001 µM): 144% | viability, T/C (second compound 0.1 µM, first compound 0.00316 µM): 84.2% | viability, T/C (second compound 0.1 µM, first compound 0.01 µM): 101% | viability, T/C [7]: 107% | viability, T/C [8]: 100% | viability, T/C (second compound 0.316 µM, first compound 0.000316 µM): 81.3% | viability, T/C (second compound 0.316 µM, first compound 0.001 µM): 87% | viability, T/C (second compound 0.316 µM, first compound 0.00316 µM): 79% | viability, T/C (second compound 0.316 µM, first compound 0.01 µM): 78.1% | viability, T/C [9]: 85.3% | viability, T/C [10]: 73.1% | viability, T/C (second compound 1 µM, first compound 0.000316 µM): 90.3% | viability, T/C (second compound 1 µM, first compound 0.001 µM): 74.5% | viability, T/C (second compound 1 µM, first compound 0.00316 µM): 70.8% | viability, T/C (second compound 1 µM, first compound 0.01 µM): 72% | viability, T/C [11]: 71.2% | viability, T/C [12]: 81.4%

IC50 (second compound 0.00316 µM): > 10 µM | IC50 (second compound 0.01 µM): > 10 µM | IC50 (second compound 0.0316 µM): > 10 µM | IC50 (second compound 0.1 µM): > 10 µM | IC50 (second compound 0.316 µM): > 10 µM | IC50 (second compound 1 µM): > 10 µM
Structure (SMILES): CNC(=O)c1ccc(N2C(=S)N(c3ccc(C#N)c(C(F)(F)F)c3)C(=O)C2(C)C)cc1F + CC(Nc1ccc2c(c1)OCCn1cc(N3C(=O)OCC3C(F)F)nc1-2)C(N)=O
viability, T/C [1]: 96.3% | viability, T/C [2]: 84.8% | viability, T/C (second compound 0.00316 µM, first compound 0.316 µM): 123% | viability, T/C (second compound 0.00316 µM, first compound 1 µM): 95% | viability, T/C (second compound 0.00316 µM, first compound 3.16 µM): 83.4% | viability, T/C (second compound 0.00316 µM, first compound 10 µM): 80.1% | viability, T/C [3]: 95.5% | viability, T/C [4]: 82% | viability, T/C (second compound 0.01 µM, first compound 0.316 µM): 85.4% | viability, T/C (second compound 0.01 µM, first compound 1 µM): 103% | viability, T/C (second compound 0.01 µM, first compound 3.16 µM): 96.8% | viability, T/C (second compound 0.01 µM, first compound 10 µM): 84.4% | viability, T/C [5]: 93.9% | viability, T/C [6]: 78.2% | viability, T/C (second compound 0.0316 µM, first compound 0.316 µM): 102% | viability, T/C (second compound 0.0316 µM, first compound 1 µM): 103% | viability, T/C (second compound 0.0316 µM, first compound 3.16 µM): 99.4% | viability, T/C (second compound 0.0316 µM, first compound 10 µM): 90.3% | viability, T/C [7]: 103% | viability, T/C [8]: 124% | viability, T/C (second compound 0.1 µM, first compound 0.316 µM): 96.4% | viability, T/C (second compound 0.1 µM, first compound 1 µM): 92.5% | viability, T/C (second compound 0.1 µM, first compound 3.16 µM): 86.5% | viability, T/C (second compound 0.1 µM, first compound 10 µM): 76% | viability, T/C [9]: 91% | viability, T/C [10]: 95.5% | viability, T/C (second compound 0.316 µM, first compound 0.316 µM): 88.6% | viability, T/C (second compound 0.316 µM, first compound 1 µM): 88.6% | viability, T/C (second compound 0.316 µM, first compound 3.16 µM): 89.1% | viability, T/C (second compound 0.316 µM, first compound 10 µM): 71.6% | viability, T/C [11]: 84.4% | viability, T/C [12]: 88.6% | viability, T/C (second compound 1 µM, first compound 0.316 µM): 86.7% | viability, T/C (second compound 1 µM, first compound 1 µM): 87.4% | viability, T/C (second compound 1 µM, first compound 3.16 µM): 64.4% | viability, T/C (second compound 1 µM, first compound 10 µM): 79.6%
